Data: PMC3568925 (Biochemistry, 2013)

Target: BacD (Bacillus subtilis, UniProt P39641)
Assay: LC/MS and 1H-NMR of dipeptide product
Assay type: biochemical
Conditions: 1 mM substrate, 3 mM L-Ala, 3 mM ATP, 5 mM MgCl2, 20 uM BacD, 50 mM potassium phosphate pH 8.0, room temperature

BacD, sequence (P39641 whole entry): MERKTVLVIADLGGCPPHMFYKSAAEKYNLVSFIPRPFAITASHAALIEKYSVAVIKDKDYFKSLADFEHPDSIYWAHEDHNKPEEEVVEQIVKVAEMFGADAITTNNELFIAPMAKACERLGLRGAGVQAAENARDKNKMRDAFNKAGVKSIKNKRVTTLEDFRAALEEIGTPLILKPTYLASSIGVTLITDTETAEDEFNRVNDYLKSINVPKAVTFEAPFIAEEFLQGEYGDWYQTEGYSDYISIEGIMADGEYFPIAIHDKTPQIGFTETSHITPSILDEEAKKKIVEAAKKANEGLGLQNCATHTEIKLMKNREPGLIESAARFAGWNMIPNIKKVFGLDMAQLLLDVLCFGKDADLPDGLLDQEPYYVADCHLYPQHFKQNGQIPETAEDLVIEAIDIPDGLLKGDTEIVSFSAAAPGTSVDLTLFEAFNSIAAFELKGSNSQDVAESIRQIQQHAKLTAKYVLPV

## N[C@@H](C[C@H]1C=C[C@H](O)CC1)C(=O)O [4S-H4Tyr]
  LC/MS and 1H-NMR of dipeptide product: BacD would ligate L-Ala onto the N-terminus of both the 4S and 4R diastereomers
